SMILES strings stand for the structures.

These results are taken from US7146277B2, “NMR assisted design of high affinity ligands for structurally uncharacterized proteins” (priority 2000, dated 2006).

The target in assay [1] is T1, mannose-binding protein (MBP) (Rattus norvegicus, UniProt P19999).
T1 construct: made in house; host or cells: E. coli JA221
The assay can be described thus: Binding of AMM to mannose-binding protein (previously determined binding constant, used for the bound fraction). To be noted: 1 mM MBP-A, 1 mM AMM; calculated from dissociation constant and concentrations. The source says: Interpretation of residual dipolar contributions of a ligand in a protein-bound state will, in general, require separation of the contribution from the free state using known binding properties. The observed residual dipolar couplings measured in the AMM/MBP complex (Table 2, Dobs) will be a population weighted average from the free (Nfree) and bound (Nbound) states, such that: Dobs=NfreeDfree+NboundDbound (1) The fraction of AMM free and bound (Nfree and Nbound) can be calculated from the dissociation constant and known protein-ligand concentrations. Using a previously determined binding constant (approx. 1 mM) approximately 40% of AMM is in fact bound to MBP leaving approximately 60% of AMM free in solution. Order Tensor Calculation in AMM

Assay [2] deals with T1, mannose-binding protein (MBP). As to conditions: AMM/MBP, previously determined; read-out: binding constant; cited from earlier work.
For assay [3], the target named is T2, GnT-V (Homo sapiens, UniProt Q09328).
T2 construct: The soluble form of recombinant human GnT-V was expressed in CHO cells; made in house; host or cells: CHO cells
T2 sequence (Q09328 31-741 limits assumed): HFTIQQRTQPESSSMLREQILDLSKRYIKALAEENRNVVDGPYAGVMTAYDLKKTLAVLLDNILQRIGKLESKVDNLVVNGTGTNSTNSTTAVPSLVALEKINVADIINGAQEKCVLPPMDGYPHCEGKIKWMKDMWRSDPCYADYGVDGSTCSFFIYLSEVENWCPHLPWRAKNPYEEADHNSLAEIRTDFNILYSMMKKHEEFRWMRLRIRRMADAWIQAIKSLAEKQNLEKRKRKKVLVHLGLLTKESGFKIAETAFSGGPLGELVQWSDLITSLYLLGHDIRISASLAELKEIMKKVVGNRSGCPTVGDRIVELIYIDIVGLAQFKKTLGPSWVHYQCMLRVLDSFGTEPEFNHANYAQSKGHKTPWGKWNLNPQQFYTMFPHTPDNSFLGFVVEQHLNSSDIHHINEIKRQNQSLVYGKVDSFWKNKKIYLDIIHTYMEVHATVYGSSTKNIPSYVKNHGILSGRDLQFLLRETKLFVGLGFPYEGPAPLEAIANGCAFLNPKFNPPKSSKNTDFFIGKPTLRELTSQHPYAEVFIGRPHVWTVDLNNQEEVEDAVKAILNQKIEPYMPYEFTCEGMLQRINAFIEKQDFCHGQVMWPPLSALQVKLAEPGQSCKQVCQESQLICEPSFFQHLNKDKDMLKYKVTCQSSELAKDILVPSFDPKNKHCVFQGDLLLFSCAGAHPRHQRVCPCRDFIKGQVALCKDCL
As to conditions: cited from earlier work; for Kd: GnT-V, known binding constant.

Take `COC1O[C@H](CO)[C@@H](O)[C@H](O)[C@@H]1O` (stereo partly drawn) [AMM, α-methyl mannoside]: the “fraction of AMM bound to MBP” value in assay [1] is given as “approximately 40%”. The Kd in assay [2] was about 1000 µM.

Consider `O=c1ccn([C@@H]2O[C@H](COP(=O)(O)OP(=O)(O)O)[C@@H](O)[C@H]2O)c(=O)[nH]1` [UDP, uridine diphosphate], for which, in assay [3], the Kd was 1100 µM and the “type of inhibition of GnT-V” value is “competitive inhibitor”.

Consider `CC(=O)N[C@H]1[C@@H](OP(=O)(O)OP(=O)(O)OC[C@H]2O[C@@H](n3ccc(=O)[nH]c3=O)[C@H](O)[C@@H]2O)O[C@H](CO)[C@@H](O)[C@@H]1O` [UDP-GlcNAc], for which the Kd in assay [3] is 1100 µM.
